The assay has as its target T1, recombinant IL4I1 (Homo sapiens, UniProt Q96RQ9).
T1 construct: purchased R&D Systems 5684-AO-020
T1 sequence (Q96RQ9 22-567): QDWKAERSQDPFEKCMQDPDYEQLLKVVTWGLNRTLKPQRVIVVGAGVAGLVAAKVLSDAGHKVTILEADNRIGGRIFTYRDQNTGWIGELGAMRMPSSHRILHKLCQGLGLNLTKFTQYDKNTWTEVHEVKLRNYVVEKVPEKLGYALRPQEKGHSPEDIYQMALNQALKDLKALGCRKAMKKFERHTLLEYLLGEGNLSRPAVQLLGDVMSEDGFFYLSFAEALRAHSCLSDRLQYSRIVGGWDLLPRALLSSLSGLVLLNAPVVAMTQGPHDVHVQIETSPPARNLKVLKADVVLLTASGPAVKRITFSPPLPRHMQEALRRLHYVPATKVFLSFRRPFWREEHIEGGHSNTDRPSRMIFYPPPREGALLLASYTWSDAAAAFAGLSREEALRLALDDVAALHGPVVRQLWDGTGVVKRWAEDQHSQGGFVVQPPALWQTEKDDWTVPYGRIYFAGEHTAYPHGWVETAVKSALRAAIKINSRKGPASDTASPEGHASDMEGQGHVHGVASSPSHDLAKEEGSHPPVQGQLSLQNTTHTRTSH
The assay can be described thus: IL4I1 Enzymatic Assay (Amplex Red/HRP coupled detection of H2O2, fluorescence). The format is biochemical. The following applies: 1 nM recombinant IL4I1; four-hour pre-incubation with compound; 1 mM each Phe, Tyr, Trp; ten-point titration. The method, boiled down: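 Recombinant IL4I1 (1 nM final) pre-incubated 4 h at ambient temperature with compound (0.5% DMSO) in 50 mM Hepes pH 7.0, 0.005% Tween20; reaction started with 1 mM each Phe/Tyr/Trp plus excess Amplex Red/HRP, run 120 min. H2O2 read as resorufin fluorescence; EC50 from 10-point four-parameter fit.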

The EC50 is the concentration that produces a half-maximal response.

As for `O=C(NCc1nnc(-c2ccccc2)s1)c1cn(CC2CCCC2)nn1` [Example 78, 1-(cyclopentylmethyl)-N-((5-phenyl-1,3,4-thiadiazol-2-yl)methyl)-1H-1,2,3-triazole-4-carboxamide], the EC50 is 34 nM.
Then `O=C(NCc1nnc(-c2ccccc2)s1)c1cn(CC2CCCO2)nn1` (centres unmarked) [Example 79, N-((5-phenyl-1,3,4-thiadiazol-2-yl)methyl)-1-((tetrahydrofuran-2-yl)methyl)-1H-1,2,3-triazole-4-carboxamide], with 110 nM; and `O=C(NCc1nnc(-c2ccccc2)s1)c1cn(CCF)nn1` [Example 80, 1-(2-fluoroethyl)-N-((5-phenyl-1,3,4-thiadiazol-2-yl)methyl)-1H-1,2,3-triazole-4-carboxamide], with 2 nM; and `CNC(=O)Cn1cc(C(=O)NCc2nnc(-c3ccccc3)s2)nn1` [Example 81, 1-(2-(methylamino)-2-oxoethyl)-N-((5-phenyl-1,3,4-thiadiazol-2-yl)methyl)-1H-1,2,3-triazole-4-carboxamide], with 6 nM.
`CCC(CC)Cn1cc(C(=O)NCc2nnc(-c3ccccc3)s2)nn1` [Example 82, 1-(2-ethylbutyl)-N-((5-phenyl-1,3,4-thiadiazol-2-yl)methyl)-1H-1,2,3-triazole-4-carboxamide]: the EC50 was determined as 282 nM.
Then `O=C(NCc1nnc(-c2ccccc2)s1)c1cn(CC2CCCCO2)nn1` (centres unmarked) [Example 83, N-((5-phenyl-1,3,4-thiadiazol-2-yl)methyl)-1-((tetrahydro-2H-pyran-2-yl)methyl)-1H-1,2,3-triazole-4-carboxamide], with 361 nM.
Then `N#CCCCn1cc(C(=O)NCc2nnc(-c3ccccc3)s2)nn1` [Example 84, 1-(3-cyanopropyl)-N-((5-phenyl-1,3,4-thiadiazol-2-yl)methyl)-1H-1,2,3-triazole-4-carboxamide], with 52 nM; and `COCCOCCn1cc(C(=O)NCc2nnc(-c3ccccc3)s2)nn1` [Example 85, 1-(2-(2-methoxyethoxy)ethyl)-N-((5-phenyl-1,3,4-thiadiazol-2-yl)methyl)-1H-1,2,3-triazole-4-carboxamide], with 15 nM.
As for `CC(C)(C)Cn1cc(C(=O)NCc2nnc(-c3ccccc3)s2)nn1` [Example 86, 1-neopentyl-N-((5-phenyl-1,3,4-thiadiazol-2-yl)methyl)-1H-1,2,3-triazole-4-carboxamide], the EC50 was 42 nM.
Then `N#CC1(Cn2cc(C(=O)NCc3nnc(-c4ccccc4)s3)nn2)CC1` [Example 87, 1-((1-cyanocyclopropyl)methyl)-N-((5-phenyl-1,3,4-thiadiazol-2-yl)methyl)-1H-1,2,3-triazole-4-carboxamide], with 18 nM; and `CC(C)Cn1cc(C(=O)NCc2nnc(-c3ccccc3)s2)nn1` [Example 88, 1-isobutyl-N-((5-phenyl-1,3,4-thiadiazol-2-yl)methyl)-1H-1,2,3-triazole-4-carboxamide], with 13 nM; and `CCC(C)Cn1cc(C(=O)NCc2nnc(-c3ccccc3)s2)nn1` (centres unmarked) [Example 89, 1-(2-methylbutyl)-N-((5-phenyl-1,3,4-thiadiazol-2-yl)methyl)-1H-1,2,3-triazole-4-carboxamide], with 37 nM.
Then `N#CCCCCn1cc(C(=O)NCc2nnc(-c3ccccc3)s2)nn1` [Example 90, 1-(4-cyanobutyl)-N-((5-phenyl-1,3,4-thiadiazol-2-yl)methyl)-1H-1,2,3-triazole-4-carboxamide], with 27 nM; and `CCOCCn1cc(C(=O)NCc2nnc(-c3ccccc3)s2)nn1` [Example 91, 1-(2-ethoxyethyl)-N-((5-phenyl-1,3,4-thiadiazol-2-yl)methyl)-1H-1,2,3-triazole-4-carboxamide], with 27 nM.
Regarding `CCCn1cc(C(=O)NCc2nnc(-c3ccccc3)s2)nn1` [Example 92, N-((5-phenyl-1,3,4-thiadiazol-2-yl)methyl)-1-propyl-1H-1,2,3-triazole-4-carboxamide], the EC50 was 3 nM.
Then `O=C(NCc1nnc(-c2ccccc2)s1)c1cn(CCCF)nn1` [Example 93, 1-(3-fluoropropyl)-N-((5-phenyl-1,3,4-thiadiazol-2-yl)methyl)-1H-1,2,3-triazole-4-carboxamide], with 8 nM.
Then `CC(C)CCn1cc(C(=O)NCc2nnc(-c3ccccc3)s2)nn1` [Example 94, 1-isopentyl-N-((5-phenyl-1,3,4-thiadiazol-2-yl)methyl)-1H-1,2,3-triazole-4-carboxamide], with 68 nM; and `O=C(NCc1nnc(-c2ccccc2)s1)c1cn(C2CCCCC2)nn1` [Example 95, 1-cyclohexyl-N-((5-phenyl-1,3,4-thiadiazol-2-yl)methyl)-1H-1,2,3-triazole-4-carboxamide], with 189 nM; and `COCCCn1cc(C(=O)NCc2nnc(-c3ccccc3)s2)nn1` [Example 96, 1-(3-methoxypropyl)-N-((5-phenyl-1,3,4-thiadiazol-2-yl)methyl)-1H-1,2,3-triazole-4-carboxamide], with 16 nM.
Turning to `CC1(O)CCC(n2cc(C(=O)NCc3nnc(-c4ccccc4)s3)nn2)CC1` (centres unmarked) [Example 97, 1-(4-hydroxy-4-methylcyclohexyl)-N-((5-phenyl-1,3,4-thiadiazol-2-yl)methyl)-1H-1,2,3-triazole-4-carboxamide], the EC50 is 486 nM.
Then `O=C(NCc1nnc(-c2ccccc2)s1)c1cn(CCCC(F)(F)F)nn1` [Example 98, N-((5-phenyl-1,3,4-thiadiazol-2-yl)methyl)-1-(4,4,4-trifluorobutyl)-1H-1,2,3-triazole-4-carboxamide], with 272 nM; and `O=C(NCc1nnc(-c2ccccc2)s1)c1cn(Cc2ccncc2)nn1` [Example 99, N-((5-phenyl-1,3,4-thiadiazol-2-yl)methyl)-1-(pyridin-4-ylmethyl)-1H-1,2,3-triazole-4-carboxamide], with 21 nM.
Then `O=C(NCc1nnc(-c2ccccc2)s1)c1cn(Cc2ccccn2)nn1` [Example 101, N-((5-phenyl-1,3,4-thiadiazol-2-yl)methyl)-1-(pyridin-2-ylmethyl)-1H-1,2,3-triazole-4-carboxamide], with 19 nM.
The same measure for `CC(=O)N1CC(n2cc(C(=O)NCc3nnc(-c4ccccc4)s3)nn2)C1` [Example 102, 1-(1-acetylazetidin-3-yl)-N-((5-phenyl-1,3,4-thiadiazol-2-yl)methyl)-1H-1,2,3-triazole-4-carboxamide]: 296 nM; for `O=C(NCc1nnc(-c2ccccc2)s1)c1cn(C2CN(C(=O)C3CC3)C2)nn1` [Example 103, 1-(1-(cyclopropanecarbonyl)azetidin-3-yl)-N-((5-phenyl-1,3,4-thiadiazol-2-yl)methyl)-1H-1,2,3-triazole-4-carboxamide]: 542 nM; for `Cc1ccc(-n2cc(C(=O)NCc3nnc(-c4ccc(F)cc4F)s3)nn2)c(C)n1` [Example 105, N-((5-(2,4-difluorophenyl)-1,3,4-thiadiazol-2-yl)methyl)-1-(2,6-dimethylpyridin-3-yl)-1H-1,2,3-triazole-4-carboxamide]: 909 nM.
Turning to `Cc1ccc(-n2cc(C(=O)NCc3nnc(-c4ccc(F)c(F)c4)s3)nn2)c(C)n1` [Example 106, N-((5-(3,4-difluorophenyl)-1,3,4-thiadiazol-2-yl)methyl)-1-(2,6-dimethylpyridin-3-yl)-1H-1,2,3-triazole-4-carboxamide], the EC50 amounted to 695 nM.
Then `Cc1ccc(-n2cc(C(=O)NCc3nnc(-c4ccccc4C)s3)nn2)c(C)n1` [Example 107, 1-(2,6-dimethylpyridin-3-yl)-N-((5-(o-tolyl)-1,3,4-thiadiazol-2-yl)methyl)-1H-1,2,3-triazole-4-carboxamide], with 58 nM; and `Cc1ccc(-n2cc(C(=O)NCc3nnc(-c4cc(F)ccc4F)s3)nn2)c(C)n1` [Example 108, N-((5-(2,5-difluorophenyl)-1,3,4-thiadiazol-2-yl)methyl)-1-(2,6-dimethylpyridin-3-yl)-1H-1,2,3-triazole-4-carboxamide], with 651 nM.
Then `Cc1ccc(-n2cc(C(=O)NCc3nnc(-c4ccsc4C)s3)nn2)c(C)n1` [Example 109, 1-(2,6-dimethylpyridin-3-yl)-N-((5-(2-methylthiophen-3-yl)-1,3,4-thiadiazol-2-yl)methyl)-1H-1,2,3-triazole-4-carboxamide], with 29 nM.
`Cc1ccc(-n2cc(C(=O)NCc3nnc(-c4cccc(F)c4C)s3)nn2)c(C)n1` [Example 110, 1-(2,6-dimethylpyridin-3-yl)-N-((5-(3-fluoro-2-methylphenyl)-1,3,4-thiadiazol-2-yl)methyl)-1H-1,2,3-triazole-4-carboxamide]: the half-maximal effective concentration (EC50) is 312 nM.
The same measure for `Cc1ccc(-n2cc(C(=O)NCc3nnc(-c4ccc(F)cc4Cl)s3)nn2)c(C)n1` [Example 111, N-((5-(2-chloro-4-fluorophenyl)-1,3,4-thiadiazol-2-yl)methyl)-1-(2,6-dimethylpyridin-3-yl)-1H-1,2,3-triazole-4-carboxamide]: 727 nM.

The values above are taken from patent publication US20240336608A1, “IL4I1 INHIBITORS AND METHODS OF USE” (Merck Sharp & Dohme LLC, priority 2023, published 2024).
